Assay results taken from patent US9675627B2, “Dosing regimens for treating and/or preventing cerebral amyloidoses” (Amicus Therapeutics, Inc., priority 2014, dated 2017).

Assays:
[1] = biological target: T1, β-hex; assay: β-hex enzymatic inhibition in fibroblast lysate (4-MU substrate); assay type: biochemical, human
T1 construct: other: pH 5; other: pH 7
Text: (§1) Enzymatic activity measurements were done in duplicate.

[2] = test system: Aβ; assay: Aβ assay (ELISA of monomeric Aβ, dot blot of oligomers) in brain; assay type: in vivo, Dutch APP^E693Q transgenic mice; settings: 3-month treatment, any dose tested
Experimental: (§2) The generation and characterization of Dutch APPE693Q mice transgenic mice is described in Gandy, S., et al. Days to criterion as an indicator of toxicity associated with human Alzheimer amyloid-beta oligomers. Annals of neurology 68, 220-230 (2010). 3-month-old male Dutch APP^E693Q mice transgenic mice were orally gavaged 5 days/week with either vehicle (water) (n=15) or 3, 10, 30 or 100 mg/kg AdDNJ for 3 months (n=13). All animal studies were approved and conducted in accordance with the Institutional Animal Care and Usage Committee. Mice were kept in a pathogen-free environment, on a 12-hour light/dark cycle and given ad libitum access to food and water. At 6 month of age treatment groups, and a 3-month-old untreated baseline group (n=15), were cognitively assessed in the NOR, EPM and FC tests. 48 hours following the final dose mice were perfused with ice-cold 1×PBS. The brain was removed and dissected into two hemispheres. One half was snap-frozen on dry ice and stored at −80° C. for biochemistry; the other half was post-fixed in 4% paraformaldehyde then sagittally sectioned on a vibratome into 30 μm sections and stored at 4° C. in storage buffer until histological analyses.
Right hemibrains were processed via differential detergent solubilizationin accordance with Kawarabayashi, T., et al. Age-dependent changes in brain, CSF, and plasma amyloid (beta) protein in the Tg2576 transgenic mouse model of Alzheimer's disease. J Neurosci 21, 372-381 (2001). For analysis of native oligomeric Aβ protein structure, 2-4 μL native protein samples from TBS-soluble were spotted onto activated/pre-wetted PVDF membrane (0.22 μm; Millipore) and allowed to dry. Following protein spotting, membranes were blocked for 1 h at room temperature in 5% w/v non-fat milk (Santa Cruz) in TBS containing 0.1% v/v Tween-20 (Fisher Scientific; TBS-T). Membranes were then incubated in the indicated primary antibody (in 5% milk/TBS-T) overnight at 4 C, washed 4× in TBS-T, incubated in species-specific HRP-conjugated secondary antibody (in 5% milk/TBS-T) for 1 h at room temperature, and then washed 4× in TBS-T. Membranes were subsequently developed with ECL Western blotting substrate (Pierce) using the Fujifilm LAS-3000 developer. Membranes were then washed 1× in TBS-T and stripped in low pH stripping buffer [25 mM Glycine HCl, pH 2.0 and 1% w/v SDS] with vigorous shaking to remove primary and secondary antibody, washed 3× in TBS-T, and blocked for 1 h (in 5% milk/TBS-T) at room temperature before probing with the next primary antibody. Integrated density of immunoreactive spots was measured using MultiGauge Software (FujiFilm) and normalized to % control (vehicle). Generation, purification, and characterization of rabbit pAβ A11 (anti-prefibrillar oligomers, 0.5 μg/ml), rabbit pAβ OC (anti-fibrillar oligomers and fibrils; 0.25 μg/ml) and mouse mAβ Nu-4 (anti-oligomers; 1 μg/ml) have been described previously (Tomic, J. L., Pensalfini, A., Head, E. & Glabe, C. G. Soluble fibrillar oligomer levels are elevated in Alzheimer's disease brain and correlate with cognitive dysfunction. Neurobiology of disease 35, 352-358 (2009); Lambert, M. P., et al. Monoclonal antibodies that target pathological assemblies of Abeta. Journal of neurochemistry 100, 23-35 (2007)). […] To quantify monomeric Aβ levels, human/rat Aβ 1-40/1-42 ELISA kits (Wako) were used according to the manufacturer's instructions. […]

[3] = biological target: T2, β-galactosidase (β-Gal) (Homo sapiens, UniProt P16278); assay: Selectivity: beta-galactosidase activity in fibroblast lysate; assay type: biochemical; settings: 10 μM, the highest concentration tested
T2 construct: wild-type fibroblast (CRL2076) pellets (˜2.5e6 cells/pellet) were lysed; host or cells: wild-type fibroblasts CRL2076, lysate
T2 sequence (P16278 29-677): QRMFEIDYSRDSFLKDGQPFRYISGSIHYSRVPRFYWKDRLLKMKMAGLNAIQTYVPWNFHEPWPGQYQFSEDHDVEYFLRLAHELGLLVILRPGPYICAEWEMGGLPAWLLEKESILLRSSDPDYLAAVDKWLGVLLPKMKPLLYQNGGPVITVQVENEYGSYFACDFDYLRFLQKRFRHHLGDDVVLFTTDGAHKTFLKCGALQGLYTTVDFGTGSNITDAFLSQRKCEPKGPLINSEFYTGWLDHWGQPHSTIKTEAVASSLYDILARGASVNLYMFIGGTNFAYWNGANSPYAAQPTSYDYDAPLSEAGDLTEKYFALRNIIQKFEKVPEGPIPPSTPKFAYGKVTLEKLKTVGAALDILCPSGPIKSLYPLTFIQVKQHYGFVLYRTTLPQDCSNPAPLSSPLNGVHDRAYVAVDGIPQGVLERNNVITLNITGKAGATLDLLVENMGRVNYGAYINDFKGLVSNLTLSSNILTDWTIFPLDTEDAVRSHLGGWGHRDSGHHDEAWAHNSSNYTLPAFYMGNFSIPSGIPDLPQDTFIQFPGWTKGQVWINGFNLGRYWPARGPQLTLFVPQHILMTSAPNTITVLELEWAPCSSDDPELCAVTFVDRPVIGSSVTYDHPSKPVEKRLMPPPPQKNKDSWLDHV
Text: as §1

[4] = test system: Dutch APP^E693Q transgenic mice; assay: Contextual and cued fear conditioning; assay type: in vivo; settings: 3-month course, 3-100 mg/kg
Experimental: as §2, with “One half was snap-frozen on dry ice and stored at −80° C. for biochemistry; the other half was post-fixed in 4% paraformaldehyde then sagittally sectioned on a vibratome into 30 μm sections and stored at 4° C. in storage buffer until histological analyses.” left out
Contextual and cued fear conditioning was assessed using the ANY-Maze fear conditioning system (Stoelting Co., Wood Dale, Ill., USA) as previously described in Steele, J. W., et al. Early fear memory defects are associated with altered synaptic plasticity and molecular architecture in the TgCRND8 Alzheimer's disease mouse model. […]

CC(=O)NC1CNC(CO)[C@@H](O)C1O (stereo partly drawn) [AdDNJ, 2-acetamido-1,2-dideoxynojirimycin]
Ki ([1]; pH 5): 253 nM | Ki ([1]; pH 7): 342 nM | Aβ40 level [2]: no change | Aβ42/40 ratio [2]: no change | Aβ42 level [2]: no change | Aβ oligomer levels [2]: no change | prefibrillar Aβ [2]: no change | inhibition of β-galactosidase (β-Gal) [3]: did not inhibit | contextual or cued fear conditioning [4]: no effect
